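The compound was tested at five concentrations on cells cultured in 96-well plates, with a 48-hour exposure period. TGI: total growth inhibition.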
What was measured:
Assay in all cases: NCI anticancer screen, dose series, 48 h
LOX IMVI melanoma = test system: LOX IMVI melanoma
OVCAR-5 ovarian = test system: OVCAR-5 ovarian
UO-31 renal = test system: UO-31 renal
MALME-3M melanoma = test system: MALME-3M melanoma
HOP-62 NSCLC = test system: HOP-62 NSCLC
MDA-MB-435 = test system: MDA-MB-435
SF-295 CNS = test system: SF-295 CNS
IGROV1 ovarian = test system: IGROV1 ovarian
M14 melanoma = test system: M14 melanoma
SK-MEL-2 melanoma = test system: SK-MEL-2 melanoma
HL-60(TB) leukemia = test system: HL-60(TB) leukemia
RPMI-8226 leukemia = test system: RPMI-8226 leukemia
UACC-62 melanoma = test system: UACC-62 melanoma
MOLT-4 leukemia = test system: MOLT-4 leukemia
OVCAR-8 ovarian = test system: OVCAR-8 ovarian
HS 578T breast = test system: HS 578T breast
NCI-H522 lung = test system: NCI-H522 lung
RXF 393 renal = test system: RXF 393 renal

Compound	TGI (LOX IMVI melanoma) [µM]	TGI (OVCAR-5 ovarian) [µM]	TGI (UO-31 renal) [µM]	TGI (MALME-3M melanoma) [µM]	TGI (HOP-62 NSCLC) [µM]	TGI (MDA-MB-435) [µM]	TGI (SF-295 CNS) [µM]	TGI (IGROV1 ovarian) [µM]	TGI (M14 melanoma) [µM]	TGI (SK-MEL-2 melanoma) [µM]	TGI (HL-60(TB) leukemia) [µM]	TGI (RPMI-8226 leukemia) [µM]	TGI (UACC-62 melanoma) [µM]	TGI (MOLT-4 leukemia) [µM]	TGI (OVCAR-8 ovarian) [µM]	TGI (HS 578T breast) [µM]	TGI (NCI-H522 lung) [µM]	TGI (RXF 393 renal) [µM]
CC(=O)N(CN1C(=O)CCC1C(=O)O)c1cccc(O)c1 (configuration not stated)	> 100	> 100	> 100	> 100	> 100	> 100	> 100	> 100	> 100	> 100	> 100	> 100	> 100	> 100	> 100	> 100	> 100	
CC(C)(C)OC(=O)N(CCNS(=O)(=O)c1cccc2cnccc12)CCC(=O)ON1C(=O)CCC1=O	> 100	> 100	> 100	> 100	> 100	> 100	> 100	> 100	> 100	> 100		> 100	> 100	> 100	> 100	> 100	> 100	> 100
Cc1ccc(-c2c(C#N)c(N)nc3c2CCS(=O)(=O)c2ccccc2-3)cc1	> 100		> 100	> 100		> 100		> 100		> 100		> 100	> 100		> 100	> 100	> 100	
NC(CCC(=O)O)(CCC(=O)O)CCC(=O)O		> 100	> 100	> 100		> 100	> 100	> 100	> 100	> 100		> 100	> 100	> 100	> 100	> 100	> 100	> 100
CC12c3c4cc(Br)cc3Oc3cc(Br)cc(c31)Oc1cc(Br)cc(c12)O4	51.1	> 100	> 100	37.5	> 100	> 100	> 100	86.6	> 100	67.8		> 100	> 100	> 100	> 100	> 100		
O=C1[C@@H]2C[C@@H](O)CN2C(=O)c2ccccc2N1CCCO	> 100	> 100	> 100		> 100	> 100	> 100	> 100	> 100	> 100		> 100	> 100	> 100	> 100	> 100	> 100	
O=C1CCCCC/C1=C\c1ccc(Cl)cc1	> 100	> 100	> 100	> 100	> 100	58.2	56.6	> 100	> 100	> 100		82.2	> 100	95.1		57.8	73	
c1ccc(C2OCC(OC3CCCCO3)CO2)cc1 (configuration not stated)	> 100	> 100	> 100	> 100	> 100	> 100	> 100	> 100	> 100	> 100	> 100	> 100	> 100	68.2	> 100	> 100	> 100	
O=C(CNC(=O)OCc1ccccc1)NCCCCC(NC(=O)OCc1ccccc1)C(=O)NC(CCCCNC(=O)CNC(=O)OCc1ccccc1)C(=O)OCc1ccccc1 (configuration not stated)	> 62.5	> 62.5	> 62.5	> 62.5	> 62.5	> 62.5		> 62.5	> 62.5	> 62.5	> 62.5	> 62.5	> 62.5	> 62.5	> 62.5		> 62.5	
Clc1nc(NCCc2ccccc2)c2ncn(-c3ccccc3)c2n1	43.1	> 100	43.1	52.4	67.2	35.1	> 100	> 100	49.7	19.9		47.3	56.7	51	90.6	76.7	56.4	> 100
COC(=O)C1=C(C)NC(C)=C(C(=O)OC)C1c1cccc(NO)c1	29.9	30.1	23.6	29.9	> 100	30.9	83.1	30.4	33.2	30.8		> 100	34.3		30.2	64.4	20.8	27.1
CC(=O)O[C@H]1CCn2c3c(c(C)c21)C(=O)C(N1CC1)=C(C)C3=O	> 10	> 10		> 10	> 10	> 10	> 10	> 10	> 10	> 10	> 10	> 10	> 10	> 10	> 10	> 10	> 10	
CC(C)(CO)NC(=O)Nc1c(C(F)(F)F)cc(-c2ccccc2)[nH]c1=O	> 100	> 100	> 100	> 100	> 100	> 100	> 100	> 100	> 100	> 100			> 100	> 100	> 100	> 100	> 100	> 100
C/C(=N\NC(=S)NC(C)(C)C)c1ccccn1	> 100		14.3	> 79.5	> 100	> 100	> 100	> 40.6	9.19	> 100		3.72	25.7		> 36.6	> 100	> 23.1	23.2

— PubChem BioAssay (NCI)
